Here are results for two compounds from US20230174951A1, “PHENOL-RICH GRAPES” (THE STATE OF ISRAEL, MINISTRY OF AGRICULTURE & RURAL …, priority 2020, published 2023).

Structures are written as SMILES.

For data set [1], the system named is AroG*+STS28 (Line 16) cells. Briefly: Effect of Phe and p-CA concentrations on cell growth. In kind it is cell-based, Vitis vinifera. The method, then:
The concentrations of Phe and p-CA chosen for the feeding experiments were those in which cell viability was not affected, but cell growth was slower. To compare the growth rate, the fresh Weight (FW) of the cells per ml growth media was measured at day 7 of growth. […] Even though the viability of the treated with 0.5-5 mM Phe and 0.1-0.3 mM p-CA was similar, their growth pattern differed with formation of larger clumps in the liquid media (FIG. 6C).

Take `O=C(O)/C=C/c1ccc(O)cc1` [p-Coumaric acid, p-coumaric acid]: the cell growth entry in data set [1] (0.3 mM, compared to cells in 0.2% ethanol) was “slower growth”. Also, the water solubility result in the data set “Water solubility” is listed as “not water soluble”. In the case of `N[C@@H](Cc1ccccc1)C(=O)O` [Phe, Phenylalanine], the “weight of treated cells” value in data set [1] (1, 2 and 5 mM, day 7) is on record as “weighed significantly less”.
